Measurements: patent publication US20260070944A1, “PEPTIDE PROMOTING TYROSINASE ACTIVITY AND USE THEREOF” (HYSENSBIO CO., LTD, priority 2022, published 2026)
Where no end group is shown, it is not given here.

Tested on: B16F10 cells
Test: MTT assay, cell viability
Type: cell-based
Description: A melanocyte (B16F10) cell line was cultured using DMEM containing 10% FBS and 1% penicillin/streptomycin (PS) at 37° C. in a 5% CO2 incubator.
An MTT reagent was used by being diluted in DMEM at a concentration of 0.5 mg/mL.
B16F10 cells were seeded at 230,000 cells/well in a 6-well plate, and cultured at 37° C. in a 5% CO2 incubator for 24 hours. Subsequently, the cells were treated with peptide KH001 (SEQ ID NO: 96) at different concentrations for 72 hours to prepare the cells, and then the MTT reagent was added and allowed to react in a 37° C. incubator for 1 hour under light blocking conditions. After removing the entire medium, the generated formazan was dissolved in DMSO, and then absorbance was measured at 560 nm.
B16F10 cells were treated with the KH001 peptide at different concentrations. After 72 hours after KH001 peptide treatment, cell viability was measured using an MTT assay.

Sequence: KYKQKRRSYK [KH001, KYKQKRRSYK]
- cell viability compared to the control (50 μM, 100 μM and 200 μM, 72 hours, MTT): no significant difference
- toxicity (at the predetermined concentrations (50, 100, 200 μM)): no toxicity
